Assay results: patent US20240383910A1, “SMALL MOLECULE BTK DEGRADERS AND METHODS OF USE THEREOF” (Baylor College of Medicine, priority 2023, published 2024)
Several values for one entry are separate records, joined by “and”; a condition that tells them apart may be missing. Equal values may be shown once. Read-outs that look alike come from different tables or passages of the source.

Legend:
BTK [1] = target: T1, BTK (Homo sapiens, UniProt Q06187); assay: TR-FRET saturation binding assay of the BTK tracer
Protocol: (§1) To measure the binding affinities between PROTACs and BTK, a time-resolved fluorescence resonance energy transfer (TR-FRET) competition binding assay was developed. A BTK tracer was synthesized by conjugating an ibrutinib-based reversible noncovalent binder with the BODIPY-FL dye (FIG. 1). […] In the presence of the BTK tracer, competition assays were performed to measure the binding affinities between BTK and its inhibitors and PROTACs. […] The very weak BTK binding affinities for PS-RC-1, PS-RC-2, PS-RC-3 and PS-RC-4 explain their minimal BTK degradation effects in cells and further support that the observed growth inhibitory effect of PS-RC-1 in Mino cells is unrelated to the BTK pathway.

GSPT1 = target: T2, GSPT1 (Homo sapiens, UniProt P15170+Q96SW2); assay: Western blotting for GSPT1 in Mino cells; assay type: cell-based; conditions: up to 1000 nM, 24 h, Western blot
T2 construct: host or cells: Mino
Protocol: (§2) Panel a. […] Panel b. […] Panel c. […] Panel d-e. […] Panel g.
Mino cells were seeded into the wells of six-well plates at the density of 5×10^5 cells per mL in 2 mL of complete RPMI-1640 culture medium. After overnight adaptation, cells were treated with serially diluted compounds (from 1,000-1.6 nM, 5-fold dilution) for 24 hours. After treatment, whole cell lysates for immunoblotting were prepared by pelleting Mino cells at 4° C. and 200×g for 5 minutes. The resulting cell pellets were washed once with ice-cold PBS and lysed in 1×RIPA lysis buffer (Alfa Aesar, Cat. No. J62524) supplemented with protease and phosphatase inhibitor cocktail (Thermo Fisher, Cat. No. 78430). Lysates were centrifuged at 15,000×g for 10 min at 4° C. and protein concentrations were assessed using BCA assay (Pierce, Cat. No. 23225). Same amounts of protein (30 μg) for each sample were loaded onto sodium dodecyl sulfate-polyacrylamide gel, separated by electrophoresis (Bio-Rad) at 120 V for 1.5 h and transferred to PVDF membrane using a Transblot Turbo system (Bio-Rad). […] All Western blots were subsequently processed and quantified with Imager software ImageJ and protein level was normalized to the B-actin loading controls.

BTK [2] = target: T1, BTK; assay: BTK ligand competition assay in Ramos cells (Western blotting for BTK); assay type: cell-based; design: host or cells: Ramos; conditions: co-treated with 100 nM PS-2, 24 hours, PS2W at 50 μM
Target sequence in this assay (Q06187 whole entry): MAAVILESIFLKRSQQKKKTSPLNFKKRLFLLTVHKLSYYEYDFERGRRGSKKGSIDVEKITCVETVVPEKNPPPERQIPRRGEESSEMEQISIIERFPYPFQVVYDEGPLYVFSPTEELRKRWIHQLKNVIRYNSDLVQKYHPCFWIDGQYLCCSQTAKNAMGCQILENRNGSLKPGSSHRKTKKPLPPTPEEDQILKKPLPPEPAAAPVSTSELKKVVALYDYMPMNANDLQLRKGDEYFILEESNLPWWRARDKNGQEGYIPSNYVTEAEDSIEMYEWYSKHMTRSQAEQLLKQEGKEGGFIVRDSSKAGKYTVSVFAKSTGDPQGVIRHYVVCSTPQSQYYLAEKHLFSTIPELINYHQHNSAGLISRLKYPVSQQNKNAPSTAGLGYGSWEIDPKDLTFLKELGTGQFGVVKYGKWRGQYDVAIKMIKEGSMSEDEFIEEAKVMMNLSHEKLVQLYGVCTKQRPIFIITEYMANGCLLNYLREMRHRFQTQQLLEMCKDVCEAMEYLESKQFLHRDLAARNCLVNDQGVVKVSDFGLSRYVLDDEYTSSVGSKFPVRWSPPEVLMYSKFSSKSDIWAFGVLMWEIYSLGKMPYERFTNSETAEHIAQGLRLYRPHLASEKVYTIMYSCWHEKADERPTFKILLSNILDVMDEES
Protocol: Ramos cells were incubated overnight, and then the indicated compounds were added and incubated for 24 hours, followed by Western blotting for BTK degradation.
Ramos cells were incubated overnight, and then the indicated compounds were added and incubated for 24 hours, followed by Western blotting for BTK degradation (FIG. 7).

MM.1S cells = assay: Alarma Blue cell viability assay, MM.1S cells; assay type: cell-based; conditions: Homo sapiens, MM1.S, 120 h, read-out: IC50, cell growth inhibition
From the text: as §2

Mino cells [3] = assay: cells; conditions: Homo sapiens, 72 h
From the text: (§8) The cell viabilities were quantified using an Alarma Blue assay.
(§9) Dataset represents an average of n=3 replicates.

His-BTK = target: T3, His-BTK (Homo sapiens, UniProt Q06187); assay: TR-FRET competition binding assay with BTK-BODIPY tracer; conditions: for binding to BTK (result in words): TRFRET assay, up to 100 μM; for IC50: TR-FRET, 2 nM His-BTK, 150 nM BTK-BODIPY tracer, 2 h incubation
T3 construct: purchased SignalChem B10-10H-10
Protocol: (§3) Panels a-b. […] Panel c. […] Panel d. […] Panel e. […] Panel f.
Time-resolved fluorescence resonance energy transfer (TR-FRET) assay was carried out to evaluate the binding of indicated compounds and BTK by competition with a BODIPY-FL labeled BTK tracer (See FIG. 1, BTK TR-FRET tracer). The assay was performed in 20 μL assay buffer (50 mM Tris, pH7.5, 0.1% Triton X-100, 0.01% BSA, and 1 mM DTT) with 0.3 nM Tb-anti-His (Cisbio, Cat. No. 61HI2TLA), 2 nM His-BTK (SignalChem, Cat. No. […] Unless specified otherwise, all assays were performed in triplicates. The assay mixtures were incubated at room temperature in the dark for 120 min, unless specified otherwise, and the signals were collected using a BioTek Synergy H1 microplate reader to measure the fluorescence emission ratio ([…]) of each well, using a 340-nm excitation filter, a 100-μs delay, and a 200-μs integration time. Raw data from the plate reader were used directly for analysis. The curve-fitting software GraphPad Prism 9 was used to generate graphs and curves and to determine IC50 values.
as §1

BTK [4] = target: T1, BTK; assay: Western blotting for BTK in Ramos cells; assay type: cell-based; design: host or cells: Ramos; conditions: Ramos cells, 40, 200 and 1000 nM, 24 h, Western blot
Protocol: (§4) CC-220 is a IKZF1/3 degrader developed by Celgene and used for comparison.
(§5) In contrast, PS-3, whose warhead is further reduced compared with PS-2, loses its ability to function as either a BTK degrader or a potent IKZF1/3 molecular glue. To confirm this observation, BTK degradation induced by PS-1, PS-2, and PS-3 was tested in both a human B lymphocyte cell line Ramos and mouse BALB/c B cell lymphoma line A20, with DD-03-171 from the Gray group as a positive control (FIG. 5).
Target sequence in this assay (Q06187 whole entry): as above

BTK [5] = target: T4, BTK (Mus musculus, UniProt P35991); assay: Western blotting for BTK in A20 cells; assay type: cell-based; conditions: A20 cells, 40, 200 and 1000 nM, 24 h, Western blot
T4 construct: host or cells: A20
Protocol: as §4, §5

BTK [6] = target: T1, BTK; assay: Western blotting for BTK in Mino cells; assay type: cell-based; design: host or cells: Mino; conditions: up to 1000 nM, 24 h, Western blot
Protocol: Mino cells were seeded into the wells of six-well plates at the density of 5×10^5 cells per mL in 2 mL of complete RPMI-1640 culture medium. After overnight adaptation, cells were treated with serially diluted compounds (from 1,000-1.6 nM, 5-fold dilution) for 24 hours. After treatment, whole cell lysates for immunoblotting were prepared by pelleting Mino cells at 4° C. and 200×g for 5 minutes. The resulting cell pellets were washed once with ice-cold PBS and lysed in 1×RIPA lysis buffer (Alfa Aesar, Cat. No. J62524) supplemented with protease and phosphatase inhibitor cocktail (Thermo Fisher, Cat. No. 78430). Lysates were centrifuged at 15,000×g for 10 min at 4° C. and protein concentrations were assessed using BCA assay (Pierce, Cat. No. 23225). Same amounts of protein (30 μg) for each sample were loaded onto sodium dodecyl sulfate-polyacrylamide gel, separated by electrophoresis (Bio-Rad) at 120 V for 1.5 h and transferred to PVDF membrane using a Transblot Turbo system (Bio-Rad). After blocking for 1 h at room temperature in 1% BSA-TBST, the membranes were immunoblotted with the specified primary antibodies at the dilution of 1:1000 in TBST (Cell Signaling Technology: anti-BTK Cat. No. 8547, anti-IKZF1 Cat. No. 14859, anti-IKZF3 Cat. No. 15103, anti-β-actin Cat. No. 4570, Proteintech: anti-GSPT1, Cat. No. 10763-1-AP) overnight at 4° C. and the HRP-conjugated secondary antibodies (Cell Signaling, Cat. No. 7074, 1:1000 in TBST) for 1 h at room temperature. Imaging was performed using the ECL Prime chemiluminescent Western blot detection reagents (Kindle Biosciences, Cat. No. R1100) by visualization of the blots with an Imager (Kindle Biosciences, Cat. No. D1001). All Western blots were subsequently processed and quantified with Imager software ImageJ and protein level was normalized to the B-actin loading controls.
Target sequence in this assay (Q06187 whole entry): as above

Jeko-1 cells = assay: Alarma Blue cell viability assay, Jeko-1 cells; assay type: cell-based; conditions: 72 h
Mino cells [7] = conditions: Mino cells pretreated with PS-RC-Ctrl 2 and 10 μM for 2 h
From the text: as §8, §9

Rec-R cells = assay: Alarma Blue cell viability assay, Rec-R cells; assay type: cell-based; conditions: 72 h
IKZF1-nLuc [8] = target: T5, IKZF1-nLuc (Homo sapiens, UniProt Q13422+Q96SW2); assay: IKZF1-nLuc endpoint degradation assay in HEK-293T cells; assay type: cell-based; conditions: HEK-293T, read-out: IKZF1-nLuc Endpoint Dmax
T5 construct: Addgene (vector) HsCD00512327; pLenti6.2-ccdB-Nanoluc 87078; host or cells: HEK-293T17
Protocol: as §2
(§6) The nanoluc activity was determined using the furimazine substrate (Promega, Cat. No. N1110). Briefly, after 4 h incubation of indicated compounds, cells were directly lysed by addition of 100 μL of nanoluciferase detection solution, containing lysis buffer and furimazine (1/50 dilution). For the 24-hour treatment group, the old medium was replaced with 100 μL fresh opti-MEM, followed by the addition of equal volume of lysis buffer plus furimazine (1/50 dilution).

IKZF1-nLuc [9] = target: T5, IKZF1-nLuc; assay: IKZF1-nLuc degradation kinetics assay in HEK-293T cells; assay type: cell-based; conditions: HEK-293T, read-out: IKZF1-nLuc Degradation Kinetics Dmax
From the text: as §2

IKZF3-nLuc [10] = target: T6, IKZF3-nLuc (Homo sapiens, UniProt Q96SW2+Q9UKT9); assay: IKZF3-nLuc degradation kinetics assay in HEK-293T cells; assay type: cell-based; conditions: HEK-293T, read-out: IKZF3-nLuc Degradation Kinetics Dmax
T6 construct: Addgene (vector) HsCD00513042; pLenti6.2-ccdB-Nanoluc 87078; host or cells: HEK-293T17
From the text: as §2

IKZF1 = target: T7, IKZF1 (Homo sapiens, UniProt Q13422+Q96SW2); assay: Western blotting for IKZF1 in Mino cells; assay type: cell-based; conditions: 24 h, Western blot, read-out: IKZF1-WB Endpoint Dmax
T7 construct: host or cells: Mino
Protocol: as §2
(§7) After treatment, whole cell lysates for immunoblotting were prepared by pelleting Mino cells at 4° C. and 200×g for 5 minutes. […] Imaging was performed using the ECL Prime chemiluminescent Western blot detection reagents (Kindle Biosciences, Cat. No. R1100) by visualization of the blots with an Imager (Kindle Biosciences, Cat. No. D1001). All Western blots were subsequently processed and quantified with Imager software ImageJ and protein level was normalized to the B-actin loading controls.

IKZF3-nLuc [11] = target: T6, IKZF3-nLuc; assay: IKZF3-nLuc endpoint degradation assay in HEK-293T cells; assay type: cell-based; conditions: HEK-293T, read-out: IKZF3-nLuc Endpoint Dmax
Protocol: as §2, §6

IKZF3 = target: T8, IKZF3 (Homo sapiens, UniProt Q96SW2+Q9UKT9); assay: Western blotting for IKZF3 in Mino cells; assay type: cell-based; conditions: 24 h, Western blot, read-out: IKZF3-WB Endpoint Dmax
T8 construct: host or cells: Mino
Protocol: as §2, §7

MOLM-14 cells = assay: Alarma Blue cell viability assay, MOLM14 cells; assay type: cell-based; conditions: Homo sapiens, 72 h, read-out: IC50, cell growth inhibition
From the text: as §3

T5 sequence (Q13422 whole entry): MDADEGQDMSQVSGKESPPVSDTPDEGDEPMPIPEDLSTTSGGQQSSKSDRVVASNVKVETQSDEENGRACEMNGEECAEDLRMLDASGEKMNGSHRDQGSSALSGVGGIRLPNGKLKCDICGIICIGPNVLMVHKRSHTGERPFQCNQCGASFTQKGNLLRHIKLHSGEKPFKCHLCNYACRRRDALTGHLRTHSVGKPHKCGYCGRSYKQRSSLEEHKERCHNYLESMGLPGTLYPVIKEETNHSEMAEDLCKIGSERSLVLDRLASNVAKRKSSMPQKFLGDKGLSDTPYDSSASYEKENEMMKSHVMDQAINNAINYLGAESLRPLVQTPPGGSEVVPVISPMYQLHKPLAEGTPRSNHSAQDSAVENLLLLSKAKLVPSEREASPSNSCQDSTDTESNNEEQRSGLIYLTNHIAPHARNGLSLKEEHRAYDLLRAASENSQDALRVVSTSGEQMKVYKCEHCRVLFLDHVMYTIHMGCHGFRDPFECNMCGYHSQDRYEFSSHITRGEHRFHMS
T5 sequence (Q96SW2 whole entry): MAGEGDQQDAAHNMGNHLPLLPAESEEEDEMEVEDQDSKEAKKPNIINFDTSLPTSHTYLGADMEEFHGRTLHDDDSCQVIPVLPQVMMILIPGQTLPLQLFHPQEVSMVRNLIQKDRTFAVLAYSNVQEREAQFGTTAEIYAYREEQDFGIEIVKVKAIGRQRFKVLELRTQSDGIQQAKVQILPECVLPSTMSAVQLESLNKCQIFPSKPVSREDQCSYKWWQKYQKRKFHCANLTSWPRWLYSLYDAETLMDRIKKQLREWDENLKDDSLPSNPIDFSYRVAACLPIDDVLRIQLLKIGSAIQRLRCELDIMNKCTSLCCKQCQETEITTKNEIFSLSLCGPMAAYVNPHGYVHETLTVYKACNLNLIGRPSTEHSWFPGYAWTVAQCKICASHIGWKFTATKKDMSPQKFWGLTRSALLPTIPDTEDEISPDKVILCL
T5 sequence (Q16531 whole entry partner): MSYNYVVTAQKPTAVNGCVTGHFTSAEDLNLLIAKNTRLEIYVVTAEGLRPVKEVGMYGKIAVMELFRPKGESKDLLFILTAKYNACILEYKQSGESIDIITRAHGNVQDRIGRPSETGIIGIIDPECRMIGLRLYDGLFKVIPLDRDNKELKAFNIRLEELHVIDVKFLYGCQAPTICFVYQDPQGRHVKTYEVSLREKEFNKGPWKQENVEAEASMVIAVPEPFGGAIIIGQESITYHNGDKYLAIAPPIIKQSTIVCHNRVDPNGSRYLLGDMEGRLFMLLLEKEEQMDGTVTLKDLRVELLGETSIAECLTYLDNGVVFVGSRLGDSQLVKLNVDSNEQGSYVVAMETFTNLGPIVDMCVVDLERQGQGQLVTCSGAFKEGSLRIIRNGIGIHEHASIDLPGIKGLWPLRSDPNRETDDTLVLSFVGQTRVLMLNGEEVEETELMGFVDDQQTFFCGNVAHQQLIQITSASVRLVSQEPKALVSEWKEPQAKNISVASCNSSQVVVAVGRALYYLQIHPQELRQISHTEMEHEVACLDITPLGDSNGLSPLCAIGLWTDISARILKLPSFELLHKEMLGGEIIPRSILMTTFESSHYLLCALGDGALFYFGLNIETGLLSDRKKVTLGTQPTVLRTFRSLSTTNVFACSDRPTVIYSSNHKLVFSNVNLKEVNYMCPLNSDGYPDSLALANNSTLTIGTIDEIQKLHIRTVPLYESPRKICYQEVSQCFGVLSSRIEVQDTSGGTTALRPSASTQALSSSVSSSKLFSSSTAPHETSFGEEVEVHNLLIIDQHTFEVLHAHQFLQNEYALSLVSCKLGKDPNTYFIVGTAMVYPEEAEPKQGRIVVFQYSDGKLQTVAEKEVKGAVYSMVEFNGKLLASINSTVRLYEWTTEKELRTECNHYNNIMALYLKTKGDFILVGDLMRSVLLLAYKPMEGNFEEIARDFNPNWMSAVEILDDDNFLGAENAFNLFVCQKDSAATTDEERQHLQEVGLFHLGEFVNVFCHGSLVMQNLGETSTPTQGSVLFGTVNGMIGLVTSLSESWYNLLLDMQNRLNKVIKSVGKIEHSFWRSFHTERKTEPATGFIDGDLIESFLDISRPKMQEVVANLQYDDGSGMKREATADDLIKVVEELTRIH
T6 sequence (Q9UKT9 whole entry): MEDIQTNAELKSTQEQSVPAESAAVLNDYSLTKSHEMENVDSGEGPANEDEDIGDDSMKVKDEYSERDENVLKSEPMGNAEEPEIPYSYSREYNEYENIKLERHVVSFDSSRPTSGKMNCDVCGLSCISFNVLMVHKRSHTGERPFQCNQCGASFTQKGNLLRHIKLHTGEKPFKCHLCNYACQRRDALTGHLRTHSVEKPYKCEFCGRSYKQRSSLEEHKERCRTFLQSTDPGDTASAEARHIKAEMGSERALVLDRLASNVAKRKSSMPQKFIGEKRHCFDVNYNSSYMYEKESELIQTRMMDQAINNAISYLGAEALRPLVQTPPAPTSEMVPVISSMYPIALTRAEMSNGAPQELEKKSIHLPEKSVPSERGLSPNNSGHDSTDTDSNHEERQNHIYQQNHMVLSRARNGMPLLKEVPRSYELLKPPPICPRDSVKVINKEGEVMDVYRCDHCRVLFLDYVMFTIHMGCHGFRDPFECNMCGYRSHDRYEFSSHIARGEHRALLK
T6 sequence (Q96SW2 whole entry): as the sequence (Q96SW2 whole entry) above
T6 sequence (Q16531 whole entry partner): as the sequence (Q16531 whole entry partner) above
T3 sequence (Q06187 whole entry): as the sequence (Q06187 whole entry) above
T4 sequence (P35991 whole entry): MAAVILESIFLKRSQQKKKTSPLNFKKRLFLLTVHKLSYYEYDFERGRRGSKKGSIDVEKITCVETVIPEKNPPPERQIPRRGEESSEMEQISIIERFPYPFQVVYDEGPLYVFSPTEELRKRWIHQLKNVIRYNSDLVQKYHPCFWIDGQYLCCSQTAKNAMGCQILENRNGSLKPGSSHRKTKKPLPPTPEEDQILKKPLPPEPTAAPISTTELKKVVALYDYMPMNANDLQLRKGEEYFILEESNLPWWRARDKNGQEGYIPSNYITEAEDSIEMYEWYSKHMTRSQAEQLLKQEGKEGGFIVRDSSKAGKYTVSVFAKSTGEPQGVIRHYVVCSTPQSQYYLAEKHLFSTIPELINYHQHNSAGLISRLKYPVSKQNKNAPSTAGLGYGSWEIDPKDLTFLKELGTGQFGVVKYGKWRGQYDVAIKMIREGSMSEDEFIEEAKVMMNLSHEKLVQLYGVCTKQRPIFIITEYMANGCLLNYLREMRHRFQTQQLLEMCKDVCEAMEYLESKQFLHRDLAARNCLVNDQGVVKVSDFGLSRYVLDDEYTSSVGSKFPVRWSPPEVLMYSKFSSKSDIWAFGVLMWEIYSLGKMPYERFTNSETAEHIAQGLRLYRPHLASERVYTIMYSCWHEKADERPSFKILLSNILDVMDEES
T2 sequence (P15170 whole entry): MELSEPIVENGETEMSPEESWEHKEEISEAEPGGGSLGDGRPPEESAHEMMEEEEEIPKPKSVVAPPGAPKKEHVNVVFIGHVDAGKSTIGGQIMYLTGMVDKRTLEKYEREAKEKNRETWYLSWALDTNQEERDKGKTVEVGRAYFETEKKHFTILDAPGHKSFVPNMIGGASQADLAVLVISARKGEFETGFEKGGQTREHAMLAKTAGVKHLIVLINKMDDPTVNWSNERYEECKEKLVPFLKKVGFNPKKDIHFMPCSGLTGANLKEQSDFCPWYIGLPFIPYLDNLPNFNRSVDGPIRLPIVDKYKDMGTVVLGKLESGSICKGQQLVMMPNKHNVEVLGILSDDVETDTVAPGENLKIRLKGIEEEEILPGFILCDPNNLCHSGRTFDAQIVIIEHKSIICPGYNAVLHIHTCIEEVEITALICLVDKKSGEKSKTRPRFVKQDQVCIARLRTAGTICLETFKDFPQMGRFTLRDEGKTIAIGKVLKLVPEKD
T2 sequence (Q96SW2 whole entry): as the sequence (Q96SW2 whole entry) above
T2 sequence (Q16531 whole entry partner): as the sequence (Q16531 whole entry partner) above
T7 sequence (Q13422 whole entry): as the sequence (Q13422 whole entry) above
T7 sequence (Q96SW2 whole entry): as the sequence (Q96SW2 whole entry) above
T7 sequence (Q16531 whole entry partner): as the sequence (Q16531 whole entry partner) above
T8 sequence (Q9UKT9 whole entry): as the sequence (Q9UKT9 whole entry) above
T8 sequence (Q96SW2 whole entry): as the sequence (Q96SW2 whole entry) above
T8 sequence (Q16531 whole entry partner): as the sequence (Q16531 whole entry partner) above

CC1=CC(C)=[N+]2C1=Cc1ccc(CCC(=O)NCCCN(C)CCCC(=O)N3CCC[C@@H](n4nc(-c5ccc(Oc6ccccc6)cc5)c5c(N)ncnc54)C3)n1[B-]2(F)F [BTK tracer]
Kd (BTK [1]): 155 nM

Cc1ccc(NC(=O)NCc2ccc3c(c2)CN(C2CCC(=O)NC2=O)C3=O)cc1Cl (stereo not drawn) [CC-885, reference compound]
GSPT1 degradation (result in words) (GSPT1): potent GSPT1 degrader

CN1CCN(c2ccc(Nc3nccc(Oc4ccccc4)n3)cc2)CC1 [PS2W]
competition with PS-2 induced BTK degradation (BTK ligand) (BTK [2]): cannot completely compete out

O=C1CCC(N2C(=O)c3cccc(NCC(=O)N4CCN(c5ccc(Nc6nc(Oc7ccccc7)c7occc7n6)cc5)CC4)c3C2=O)C(=O)N1 (stereo not drawn) [PS-1, 2-(2,6-Dioxopiperidin-3-yl)-4-((2-oxo-2-(4-(4-((4-phenoxyfuro[3,2-d]pyrimidin-2-yl)amino)phenyl)piperazin-1-yl)ethyl)amino)isoindoline-1,3-dione]
IC50 (MM.1S cells): 3 nM | IC50 (Mino cells [3]; read-out: IC50, cell growth inhibition / cell viability, Mino cells, 72 h): 16 nM | binding to BTK (result in words) (His-BTK): almost no binding to BTK | BTK degradation (result in words) (BTK [4]): very weak or no BTK degradation | BTK degradation (result in words) (BTK [5]): very weak or no BTK degradation

O=C1CCC(N2C(=O)c3cccc(NCC(=O)N4CCN(c5ccc(Nc6ncccn6)cc5)CC4)c3C2=O)C(=O)N1 (stereo not drawn) [PS-3, 2-(2,6-Dioxopiperidin-3-yl)-4-((2-oxo-2-(4-(4-(pyrimidin-2-ylamino)phenyl)piperazin-1-yl)ethyl)amino) isoindoline-1,3-dione]
BTK degradation (result in words) (BTK [4]): very weak or no BTK degradation | BTK degradation (result in words) (BTK [5]): very weak or no BTK degradation

CC(C)(C)/C=C(\C#N)C(=O)Nc1cccc(Oc2nc(Nc3ccc(N4CCN(C(=O)CNc5cccc6c5C(=O)N(C5CCC(=O)NC5=O)C6=O)CC4)cc3)nc3ccoc23)c1 (stereo not drawn) [PS-RC-1, (E)-2-cyano-N-(3-((2-((4-(4-((2-(2,6-dioxopiperidin-3-yl)-1,3-dioxoisoindolin-4-yl)glycyl)piperazin-1-yl)phenyl)amino)furo[3,2-d]pyrimidin-4-yl)oxy)phenyl)-4,4-dimethylpent-2-enamide]
BTK degradation (result in words) (BTK [6]): none of the tested PROTACs induce appreciable BTK degradation | response of cell growth to compound (Jeko-1 cells): poorly respond | IC50 shift upon PS-RC-Ctrl pre-treatment (Mino cells [7]): An appreciable IC50 shift was not observed | GSPT1 degradation (result in words) (GSPT1): does not degrade GSPT1 | response of cell growth to compound (Rec-R cells): poorly respond

Nc1cccc2c1C(=O)N(C1CCC(=O)NC1=O)C2=O (stereo not drawn) [Pomalidomide, reference compound]
Dmax (IKZF1-nLuc [8]): 90% | IC50 (Mino cells [3]; read-out: IC50, cell growth inhibition / cell viability): 329 nM | response of cell growth to compound (Jeko-1 cells): only Mino cells are responsive | Dmax at 0.04 µM (IKZF1-nLuc [9]): 53% | Dmax at 0.2 µM (IKZF1-nLuc [9]): 80% | Dmax at 0.04 µM (IKZF3-nLuc [10]): 52% | Dmax at 0.2 µM (IKZF3-nLuc [10]): 64% | Dmax (IKZF1): 96% | Dmax (IKZF3-nLuc [11]): 94% | Dmax (IKZF3): 96% | response of cell growth to compound (Rec-R cells): only Mino cells are responsive

C=CC(=O)Nc1cccc(Oc2nc(Nc3ccc(N4CCN(C)CC4)cc3)nc3ccoc23)c1 [Poseltinib]
IC50 (His-BTK): 1.21 nM | IC50 (His-BTK; listed as poseltinib): 1.1 nM and 1.2 nM | binding to BTK (result in words) (His-BTK): binding affinity in the nM range | IC50 (MOLM-14 cells): 2900 nM
